“And” between values parts separate entries of the source, which are not always exact repeats. Equal values may be shown once.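 Values below derive from 48-hour exposures of cells grown in 96-well plates, with endpoints linearly interpolated between the two concentrations bracketing the appropriate inhibition level. Abbreviation: GI50, concentration required for 50% inhibition of growth. TGI: concentration producing complete growth inhibition.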
How the values were obtained:
Experiment in all cases: NCI anticancer screen, dose series, 48 h
[1] = test system: A498 renal
[2] = test system: HL-60(TB) leukemia
[3] = test system: LOX IMVI melanoma
[4] = test system: M14 melanoma
[5] = test system: NCI-H522 lung
[6] = test system: OVCAR-3 ovarian
[7] = test system: OVCAR-5 ovarian
[8] = test system: SF-268 CNS
[9] = test system: U251 CNS
[10] = test system: HOP-92 NSCLC

SMILES: COc1cccc(CNc2ncnc3c2ncn3C2OC(CO)C(O)C2O)c1O (centres undefined)
- GI50 [1]: 0.205 µM
- TGI [1]: 2.21 µM
- GI50 [2]: 0.0303 µM
- TGI [2]: 0.224 µM
- GI50 [3]: 0.0616 µM
- TGI [3]: > 100 µM
- GI50 [4]: 0.248 µM
- TGI [4]: > 100 µM
- GI50 [5]: 0.0848 µM
- GI50 [6]: 0.539 µM
- TGI [6]: 4.11 µM
- GI50 [7]: 0.417 µM
- TGI [7]: > 100 µM
- GI50 [8]: 0.257 µM
- TGI [8]: > 100 µM
- GI50 [9]: 0.522 µM
- TGI [9]: > 100 µM

SMILES: CCOc1cccc2c1N[S@@](=O)S2
- TGI [2]: > 100 µM
- TGI [10]: > 100 µM
- TGI [3]: > 100 µM
- TGI [4]: > 100 µM
- TGI [5]: > 100 µM
- TGI [6]: > 100 µM
- TGI [8]: > 100 µM
- TGI [9]: > 100 µM

SMILES: N=c1c2ccccc2sc2nc3ccccc3n12
- TGI [1]: > 100 µM
- TGI [2]: > 100 µM
- TGI [10]: > 100 µM
- TGI [3]: > 100 µM
- TGI [5]: > 100 µM
- TGI [7]: > 100 µM
- TGI [8]: > 100 µM
- TGI [9]: > 100 µM

SMILES: CC(/C=C/C(O)=C1/C(=O)CNC1=O)=C\[C@@H](C)[C@H]1O[C@@]2(C)O[C@H](C(=O)[C@@H]3O[C@@]32C)[C@@H]1C
- TGI [1]: 29.1 µM
- TGI [2]: 80.6 µM
- TGI [3]: 33.5 µM
- TGI [4]: > 100 µM
- TGI [6]: 44.6 µM
- TGI [7]: 57.5 µM
- TGI [8]: 43.9 µM
- TGI [9]: 54.9 µM

SMILES: CC(=O)NC1(NC(C)=O)C2CC(C1Cc1ccccc1)C(C)(C)C2C (centres undefined)
- TGI [1]: > 100 µM
- TGI [2]: > 100 µM
- TGI [10]: > 100 µM
- TGI [4]: > 100 µM
- TGI [5]: > 100 µM
- TGI [6]: > 100 µM
- TGI [7]: > 100 µM
- TGI [8]: > 100 µM
- TGI [9]: > 100 µM

SMILES: CN(C)c1ccc(/C=C(\NC(=O)c2ccccc2)c2nc3ccc4c(c3[nH]2)C(=O)c2ccccc2C4=O)cc1
- TGI [1]: > 100 µM
- TGI [10]: 97.3 µM
- TGI [3]: > 100 µM
- TGI [4]: > 100 µM
- TGI [5]: > 100 µM
- TGI [6]: > 100 µM
- TGI [7]: > 100 µM
- TGI [8]: > 100 µM
- TGI [9]: > 100 µM

SMILES: Cn1c(=O)n(C)c2cc(CNCCNc3ccnc4cc(Cl)ccc34)ccc21
- GI50 [1]: 1.57 µM
- TGI [1]: 27 µM
- GI50 [2]: 25.1 µM
- TGI [2]: 91.2 µM
- GI50 [10]: 10.1 µM
- TGI [10]: 49.6 µM
- GI50 [3]: 14.3 µM
- TGI [3]: 30.1 µM
- GI50 [5]: 30.2 µM
- TGI [5]: 93.3 µM
- GI50 [6]: 30.8 µM
- TGI [6]: > 100 µM
- GI50 [7]: 20.3 µM
- TGI [7]: 65.4 µM
- GI50 [8]: 29.4 µM
- TGI [8]: > 100 µM
- GI50 [9]: 22.1 µM
- TGI [9]: 72.1 µM

SMILES: CC(C)(C)NCC(O)COc1c(Br)c(Br)c(Br)c2c1OC(C)(C)C2 (centres undefined)
- GI50 [1]: 1.85 µM
- TGI [1]: 3.33 µM
- GI50 [2]: 1.53 µM
- TGI [2]: 3.1 µM
- GI50 [10]: 1.52 µM
- TGI [10]: 3.17 µM
- GI50 [3]: 1.68 µM
- TGI [3]: 3.1 µM
- GI50 [4]: 1.81 µM
- TGI [4]: 3.66 µM
- GI50 [5]: 1.99 µM
- TGI [5]: 3.81 µM
- GI50 [6]: 1.54 µM
- TGI [6]: 3.11 µM
- GI50 [8]: 1.73 µM
- TGI [8]: 3.38 µM
- GI50 [9]: 1.92 µM
- TGI [9]: 3.41 µM

SMILES: COc1ccc2c(c1)C(=O)/C(=C/c1cccc(OCC(=O)Nc3nc(C)c(C)s3)c1)O2
- GI50 [1]: 1.75 µM
- TGI [1]: 10.7 µM
- GI50 [2]: 0.0444 µM
- TGI [2]: 0.175 µM
- GI50 [10]: 0.0186 µM
- TGI [10]: 0.0562 µM
- GI50 [3]: < 0.0127 µM
- TGI [3]: < 0.0178 µM
- GI50 [4]: 0.187 µM
- TGI [4]: 0.426 µM
- GI50 [5]: 0.0517 µM
- TGI [5]: 0.107 µM
- GI50 [6]: 0.0179 µM
- TGI [6]: 0.0366 µM
- GI50 [7]: 0.205 µM
- TGI [7]: 1.14 µM
- GI50 [8]: 0.0281 µM
- TGI [8]: 0.0743 µM

SMILES: COC(=O)C(=O)C(CC(=O)Nc1ccc(C)cc1)C(=O)OC (centres undefined)
- TGI [2]: > 100 µM
- TGI [10]: > 100 µM
- TGI [3]: > 100 µM
- TGI [4]: > 100 µM
- TGI [5]: > 100 µM
- TGI [6]: > 100 µM
- TGI [7]: > 100 µM
- TGI [8]: > 100 µM
- TGI [9]: > 100 µM

SMILES: CC(C)(C)[Si](C)(C)OC1[C@@H](CNC(N)=O)O[C@@H](n2cnc3c(NC(=O)Nc4ccccc4)ncnc32)[C@H]1O[Si](C)(C)C(C)(C)C (some centres undefined)
- GI50 [1]: 1.56 µM
- TGI [1]: 8.04 µM
- GI50 [2]: 1.01 µM
- TGI [2]: 2.12 µM
- GI50 [3]: 0.856 µM
- TGI [3]: 1.56 µM
- GI50 [4]: 2 µM
- TGI [4]: 8.11 µM
- GI50 [5]: 2.36 µM
- TGI [5]: 8.25 µM
- GI50 [6]: 1.12 µM
- TGI [6]: 2.31 µM
- GI50 [7]: 6.65 µM
- TGI [7]: 13.5 µM
- GI50 [8]: 1.04 µM
- TGI [8]: 2.36 µM
- GI50 [9]: 1.89 µM
- TGI [9]: 7.93 µM

SMILES: COc1cc(C(=O)N[C@H]2CCc3cc(OC)c(OC)c(OC)c3-c3ccc(SC)c(=O)cc32)cc(OC)c1OC
- TGI [2]: 0.578 µM
- TGI [10]: 25 µM
- TGI [3]: 25 µM and 19.2 µM
- TGI [5]: 0.00974 µM
- TGI [7]: 25 µM
- TGI [8]: 25 µM and 49 µM
- TGI [9]: 0.0812 µM

SMILES: COC(=O)c1cc(=O)nc2cc3cccccc3n12
- TGI [1]: > 100 µM
- TGI [2]: > 100 µM
- TGI [3]: > 100 µM
- TGI [4]: > 100 µM
- TGI [5]: > 100 µM
- TGI [6]: > 100 µM
- TGI [7]: > 100 µM
- TGI [9]: > 100 µM

SMILES: C=C1C(=O)O[C@H]2[C@H]1CC/C(COC(=O)N[C@H]1C[C@H](O[C@H]3C[C@](O)(C(=O)CO)Cc4c(O)c5c(c(O)c43)C(=O)c3c(OC)cccc3C5=O)O[C@@H](C)[C@H]1O)=C\CC[C@@]1(C)O[C@@H]21
- GI50 [1]: 6.85 µM
- TGI [1]: 29.4 µM
- GI50 [10]: 0.838 µM
- TGI [10]: 2.28 µM
- GI50 [3]: 2.17 µM
- TGI [3]: 8.25 µM
- GI50 [4]: 8.36 µM
- TGI [4]: 22.5 µM
- GI50 [5]: 0.772 µM
- TGI [5]: 1.68 µM
- GI50 [6]: 2.2 µM
- TGI [6]: 7.8 µM
- GI50 [7]: 6.91 µM
- TGI [7]: 18 µM
- GI50 [8]: 6.72 µM
- TGI [8]: 24.6 µM
- GI50 [9]: 4.87 µM
- TGI [9]: 11.2 µM

SMILES: OC1=CN=COc2ccccc21
- TGI [1]: > 100 µM
- TGI [2]: > 100 µM
- TGI [10]: > 100 µM
- TGI [3]: > 100 µM
- TGI [4]: > 100 µM
- TGI [6]: > 100 µM
- TGI [8]: > 100 µM
- TGI [9]: > 100 µM

SMILES: O=C1c2cccnc2-c2nc(-c3cccnc3)cc3c2c1nc1ccccc13
- GI50 [1]: 17.7 µM
- TGI [1]: 46.8 µM
- GI50 [2]: 2.11 µM
- TGI [2]: > 100 µM
- GI50 [10]: 6.44 µM
- TGI [10]: 80.6 µM
- GI50 [3]: 2.8 µM
- TGI [3]: > 25.1 µM
- GI50 [4]: 1.93 µM
- TGI [4]: 3.51 µM
- GI50 [5]: 1.74 µM
- TGI [5]: 4.35 µM
- GI50 [7]: 12.2 µM
- TGI [7]: 30.1 µM
- GI50 [8]: 3.73 µM
- TGI [8]: > 26.5 µM
- GI50 [9]: 3.61 µM
- TGI [9]: > 100 µM

SMILES: C[N+](C)(C)CC1CCCCC1=O (centres undefined)
- TGI [2]: 34.7 µM
- TGI [3]: 27.5 µM
- TGI [4]: 30.2 µM
- TGI [5]: 36.2 µM
- TGI [6]: 34.5 µM
- TGI [9]: > 100 µM

SMILES: CCOc1ccc(N=C(NC(=O)c2ccccc2)SC)cc1
- TGI [1]: > 100 µM
- TGI [2]: > 100 µM
- TGI [10]: > 100 µM
- TGI [3]: > 100 µM
- TGI [4]: > 100 µM
- TGI [6]: > 100 µM
- TGI [7]: > 100 µM
- TGI [8]: > 100 µM
- TGI [9]: > 100 µM

Source: PubChem BioAssay (NCI)
